Experimental data as given in patent US20150031668A1, “CHROMAN DERIVATIVES AS TRPM8 INHIBITORS” (AMGEN INC., priority 2013, published 2015).

Target: T1, human TRPM8 (Homo sapiens, UniProt Q7Z2W7)
T1 construct: expressed in transfected cells; host or cells: Chinese hamster ovary (CHO) cells, T-REx tetracycline-inducible expression system (Invitrogen); co-transfected with pcDNA3.1 aequorin
Test: Luminescence readout assay for measuring intracellular calcium (aequorin, CHO cells expressing human TRPM8; icilin, L-menthol or cold activation)
Assay type: cell-based
Conditions: CHO cells expressing human TRPM8, icilin activation (1 μM), aequorin luminescence; read-out: hTRPM8 IC50
How it was run: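 Activation was by 1 μM icilin, 100 μM L-menthol (test compound 2.5 min ahead) or cold buffer below 10° C (compound 1 min ahead). Calcium rise measured as aequorin luminescence in CHO cells with tetracycline-inducible human TRPM8.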

T1 sequence (Q7Z2W7 whole entry): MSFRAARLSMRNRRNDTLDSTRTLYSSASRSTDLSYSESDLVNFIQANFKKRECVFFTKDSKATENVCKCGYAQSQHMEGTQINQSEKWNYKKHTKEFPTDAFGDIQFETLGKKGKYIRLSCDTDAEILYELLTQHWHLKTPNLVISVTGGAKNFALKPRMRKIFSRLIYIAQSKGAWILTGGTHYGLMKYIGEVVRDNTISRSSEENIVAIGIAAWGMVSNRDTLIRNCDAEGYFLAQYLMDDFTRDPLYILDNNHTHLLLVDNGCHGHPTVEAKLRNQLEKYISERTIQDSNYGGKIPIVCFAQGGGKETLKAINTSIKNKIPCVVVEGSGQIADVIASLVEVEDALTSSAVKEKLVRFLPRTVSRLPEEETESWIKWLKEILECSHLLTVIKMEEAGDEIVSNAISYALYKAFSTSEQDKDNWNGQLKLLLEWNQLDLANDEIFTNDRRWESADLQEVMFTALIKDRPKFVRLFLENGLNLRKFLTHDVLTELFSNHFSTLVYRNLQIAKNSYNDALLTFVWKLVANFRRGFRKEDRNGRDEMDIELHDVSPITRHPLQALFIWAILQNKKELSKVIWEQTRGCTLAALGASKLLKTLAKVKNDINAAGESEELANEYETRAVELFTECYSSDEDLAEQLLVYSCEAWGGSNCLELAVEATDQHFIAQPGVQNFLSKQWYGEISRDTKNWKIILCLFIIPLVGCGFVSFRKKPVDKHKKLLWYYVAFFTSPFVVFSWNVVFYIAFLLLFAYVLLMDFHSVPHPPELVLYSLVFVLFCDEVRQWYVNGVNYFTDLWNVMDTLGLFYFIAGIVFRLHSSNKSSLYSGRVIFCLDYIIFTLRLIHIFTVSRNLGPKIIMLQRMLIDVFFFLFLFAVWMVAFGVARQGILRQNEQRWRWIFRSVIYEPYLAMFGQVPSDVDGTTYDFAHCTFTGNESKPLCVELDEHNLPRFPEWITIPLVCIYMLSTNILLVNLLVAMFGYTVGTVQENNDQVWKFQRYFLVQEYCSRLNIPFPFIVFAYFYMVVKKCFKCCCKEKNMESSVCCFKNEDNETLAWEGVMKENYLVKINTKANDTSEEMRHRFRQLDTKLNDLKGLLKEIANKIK

SMILES	IC50 [nM]
Cc1cc(C(=O)N[C@]2(c3ccc(C(F)(F)F)cc3)CCOc3cccnc32)ccc1C(=O)O [Example 288, (S)-2-methyl-4-((4-(4-(trifluoromethyl)phenyl)-3,4-dihydro-2H-pyrano[3,2-b]pyridin-4-yl)carbamoyl)benzoic acid]	45
O=C(N[C@]1(c2ccc(OC(F)(F)F)c(F)c2)CCOc2cccnc21)c1ccc(C(=O)O)c(-c2ccccc2)c1 [Example 290, (S)-5-((4-(3-fluoro-4-(trifluoromethoxy)phenyl)-3,4-dihydro-2H-pyrano[3,2-b]pyridin-4-yl)carbamoyl)-[1,1′-biphenyl]-2-carboxylic acid]	86
CC(C)c1cc(C(=O)N[C@]2(c3ccc(OC(F)(F)F)c(F)c3)CCOc3cccnc32)ccc1C(=O)O [Example 292, (S)-4-((4-(3-fluoro-4-(trifluoromethoxy)phenyl)-3,4-dihydro-2H-pyrano[3,2-b]pyridin-4-yl)carbamoyl)-2-isopropylbenzoic acid]	14
CC(C)Cc1cc(C(=O)N[C@]2(c3ccc(OC(F)(F)F)c(F)c3)CCOc3cccnc32)ccc1C(=O)O [Example 293, (S)-4-((4-(3-fluoro-4-(trifluoromethoxy)phenyl)-3,4-dihydro-2H-pyrano[3,2-b]pyridin-4-yl)carbamoyl)-2-isobutylbenzoic acid]	7
CNc1cc(C(=O)N[C@]2(c3ccc(OC(F)(F)F)c(F)c3)CCOc3cccnc32)ccc1C(=O)O [Example 294, (S)-4-((4-(3-fluoro-4-(trifluoromethoxy)phenyl)-3,4-dihydro-2H-pyrano[3,2-b]pyridin-4-yl)carbamoyl)-2-(methylamino)benzoic acid]	3
COC(=O)c1ccc(C(=O)N[C@]2(c3ccc(OC(F)(F)F)c(F)c3)CCOc3cccnc32)cc1NC(C)=O [Example 295, (S)-methyl 2-acetamido-4-((4-(3-fluoro-4-(trifluoromethoxy)phenyl)-3,4-dihydro-2H-pyrano[3,2-b]pyridin-4-yl)carbamoyl)benzoate]	15
CNC(=O)c1ccc(C(=O)N[C@]2(c3ccc(OC(F)(F)F)c(F)c3)CCOc3cccnc32)cc1C [Example 296, (S)—N4-(4-(3-fluoro-4-(trifluoromethoxy)phenyl)-3,4-dihydro-2H-pyrano[3,2-b]pyridin-4-yl)-N1,2-dimethylterephthalamide]	8
Cc1cc(C(=O)N[C@]2(c3ccc(OC(F)(F)F)c(F)c3)CCOc3cccnc32)ccc1C(=O)NC(C)(C)C [Example 297, (S)—N1-(tert-butyl)-N4-(4-(3-fluoro-4-(trifluoromethoxy)phenyl)-3,4-dihydro-2H-pyrano[3,2-b]pyridin-4-yl)-2-methylterephthalamide]	26
O=C(N[C@]1(c2ccc(OC(F)(F)F)c(F)c2)CCOc2cccnc21)c1ccc(C(=O)O)c(O)c1 [Example 298, (S)-4-((4-(3-fluoro-4-(trifluoromethoxy)phenyl)-3,4-dihydro-2H-pyrano[3,2-b]pyridin-4-yl)carbamoyl)-2-hydroxybenzoic acid]	23
Cn1cc(C(=O)N[C@]2(c3ccc(OC(F)(F)F)c(F)c3)CCOc3cccnc32)cc1C(=O)O [Example 299, (S)-4-((4-(3-fluoro-4-(trifluoromethoxy)phenyl)-3,4-dihydro-2H-pyrano[3,2-b]pyridin-4-yl)carbamoyl)-1-methyl-1H-pyrrole-2-carboxylic acid]	115
O=C(N[C@]1(c2ccc(OC(F)(F)F)c(F)c2)CCOc2cccnc21)c1ccc(C(=O)O)c(C2CC2)c1 [Example 300, (S)-2-cyclopropyl-4-((4-(3-fluoro-4-(trifluoromethoxy)phenyl)-3,4-dihydro-2H-pyrano[3,2-b]pyridin-4-yl)carbamoyl)benzoic acid]	12
Cc1[nH]c(C(=O)N[C@]2(c3ccc(OC(F)(F)F)c(F)c3)CCOc3cccnc32)cc1C(=O)O [Example 301]	266
O=C(N[C@]1(c2ccc(OC(F)(F)F)c(F)c2)CCOc2cccnc21)c1ccc(C(=O)O)c(NC2CC2)c1 [Example 302, (S)-2-(cyclopropylamino)-4-((4-(3-fluoro-4-(trifluoromethoxy)phenyl)-3,4-dihydro-2H-pyrano[3,2-b]pyridin-4-yl)carbamoyl)benzoic acid]	4
Cc1c(C(=O)O)cc(C(=O)N[C@]2(c3ccc(OC(F)(F)F)c(F)c3)CCOc3cccnc32)n1C [Example 303]	28
CNc1cc(C(=O)N[C@]2(c3ccc(OC(F)(F)F)c(F)c3)CCOc3cccnc32)cc(F)c1C(=O)O [Example 304, (S)-2-fluoro-4-((4-(3-fluoro-4-(trifluoromethoxy)phenyl)-3,4-dihydro-2H-pyrano[3,2-b]pyridin-4-yl)carbamoyl)-6-(methylamino)benzoic acid]	28
COC(=O)c1ccc(C(=O)N[C@]2(c3ccc(OC(F)(F)F)c(F)c3)CCOc3cccnc32)n1C [Example 305, (S)-methyl 5-((4-(3-fluoro-4-(trifluoromethoxy)phenyl)-3,4-dihydro-2H-pyrano[3,2-b]pyridin-4-yl)carbamoyl)-1-methyl-1H-pyrrole-2-carboxylate]	15
O=C(O)c1ccc(C(=O)N[C@]2(c3ccc(OC(F)(F)F)c(F)c3)CCOc3cccnc32)[nH]1 [Example 306, (S)-5-((4-(3-fluoro-4-(trifluoromethoxy)phenyl)-3,4-dihydro-2H-pyrano[3,2-b]pyridin-4-yl)carbamoyl)-1H-pyrrole-2-carboxylic acid]	159
O=C(NS(=O)(=O)c1ccccc1)c1ccc(C(=O)N[C@]2(c3ccc(OC(F)(F)F)c(F)c3)CCOc3cccnc32)nc1 [Example 307, (S)—N2-(4-(3-fluoro-4-(trifluoromethoxy)phenyl)-3,4-dihydro-2H-pyrano[3,2-b]pyridin-4-yl)-N5-(phenylsulfonyl)pyridine-2,5-dicarboxamide 2,2,2-trifluoroacetate]	631
O=C(N[C@]1(c2ccc(OC(F)(F)F)c(F)c2)CCOc2cccnc21)c1ccco1 [Example 308, (S)—N-(4-(3-fluoro-4-(trifluoromethoxy)phenyl)-3,4-dihydro-2H-pyrano[3,2-b]pyridin-4-yl)furan-2-carboxamide]	11
CNC(=O)c1cccc(C(=O)N[C@]2(c3ccc(OC(F)(F)F)c(F)c3)CCOc3cccnc32)c1 [Example 309, (S)—N1-(4-(3-fluoro-4-(trifluoromethoxy)phenyl)-3,4-dihydro-2H-pyrano[3,2-b]pyridin-4-yl)-N3-methylisophthalamide]	55
Cc1cc(C(=O)N[C@]2(c3ccc(OC(F)(F)F)c(F)c3)CCOc3cccnc32)cc(C)c1C(=O)O [Example 311, (S)-4-((4-(3-fluoro-4-(trifluoro-methoxy)phenyl)-3,4-dihydro-2H-pyrano[3,2-b]pyridin-4-yl)carbamoyl)-2,6-dimethylbenzoic acid]	155
O=C(O)c1ccc(C(=O)N[C@]2(c3ccc(OC(F)(F)F)cc3F)CCOc3cccnc32)nc1 [Example 312, (S)-6-((4-(2-fluoro-4-(trifluoro-methoxy)phenyl)-3,4-dihydro-2H-pyrano[3,2-b]pyridin-4-yl)carbamoyl) nicotinic acid]	104
COc1ccc(C(=O)N[C@]2(c3ccc(OC(F)(F)F)c(F)c3)CCOc3cccnc32)cc1C(=O)O [Example 315, (S)-5-((4-(3-fluoro-4-(trifluoromethoxy)phenyl)-3,4-dihydro-2H-pyrano[3,2-b]pyridin-4-yl)carbamoyl)-2-methoxybenzoic acid]	834
COc1ccc(C(=O)O)cc1C(=O)N[C@]1(c2ccc(OC(F)(F)F)c(F)c2)CCOc2cccnc21 [Example 316, (S)-3-((4-(3-fluoro-4-(trifluoro-methoxy)phenyl)-3,4-dihydro-2H-pyrano[3,2-b]pyridin-4-yl)carbamoyl)-4-methoxybenzoic acid]	89
O=C(O)c1ccc(S(=O)(=O)N[C@]2(c3ccc(OC(F)(F)F)c(F)c3)CCOc3cccnc32)cc1 [Example 317, (S)-4-(N-(4-(3-fluoro-4-(trifluoro-methoxy)phenyl)-3,4-dihydro-2H-pyrano[3,2-b]pyridin-4-yl)sulfamoyl) benzoic acid]	3340
O=C(N[C@]1(c2ccc(OC(F)(F)F)c(F)c2)CCOc2cccnc21)c1c[nH]c(C(=O)O)c1 [Example 320, (S)-4-((4-(3-fluoro-4-(trifluoro-methoxy)phenyl)-3,4-dihydro-2H-pyrano[3,2-b]pyridin-4-yl)carbamoyl)-1H-pyrrole-2-carboxylic acid]	3700
Cn1c(C(=O)O)cc2ccc(C(=O)N[C@]3(c4ccc(OC(F)(F)F)c(F)c4)CCOc4cccnc43)cc21 [Example 322, (S)-6-((4-(3-fluoro-4-(trifluoro-methoxy)phenyl)-3,4-dihydro-2H-pyrano[3,2-b]pyridin-4-yl)carbamoyl)-1-methyl-1H-indole-2-carboxylic acid]	9
CC(=O)Nc1cc(C(=O)N[C@]2(c3ccc(OC(F)(F)F)c(F)c3)CCOc3cccnc32)ccc1C(=O)O [Example 323, (S)-2-acetamido-4-((4-(3-fluoro-4-(trifluoro-methoxy)phenyl)-3,4-dihydro-2H-pyrano[3,2-b]pyridin-4-yl)carbamoyl) benzoic acid]	316
Cn1c(C(=O)O)ccc1C(=O)N[C@]1(c2ccc(OC(F)(F)F)c(F)c2)CCOc2cccnc21 [Example 324, (S)-5-((4-(3-fluoro-4-(trifluoro-methoxy)phenyl)-3,4-dihydro-2H-pyrano[3,2-b]pyridin-4-yl)carbamoyl)-1-methyl-1H-pyrrole-2-carboxylic acid]	103
O=C(N[C@]1(c2ccc(OC(F)(F)F)c(F)c2)CCOc2cccnc21)c1ccc2cc(C(=O)O)[nH]c2c1 [Example 325, (S)-6-((4-(3-fluoro-4-(trifluoro-methoxy)phenyl)-3,4-dihydro-2H-pyrano[3,2-b]pyridin-4-yl)carbamoyl)-1H-indole-2-carboxylic acid]	118
